# Test results: patent US9045459B2, “Phenalkylamine derivatives, pharmaceutical compositions containing them, and their use in therapy” (AbbVie Deutschland GmbH & Co. KG, priority 2010, dated 2015)
# Target: human GlyT1c transporter (Homo sapiens (Human), UniProt P48067)
# Test: Radioligand binding assay using recombinant CHO cell membranes expressing human GlyT1
# Settings: read-out: radioligand binding Kiapp
# Experimental: 2. Radioligand binding assays using recombinant CHO cell membranes expressing human GlyT1:
# Radioligand binding to human GlyT1c transporter-expressing membranes was determined as described in Mezler et al., Molecular Pharmacology 74:1705-1715, 2008.
# Chain of human GlyT1c transporter (P48067 whole entry): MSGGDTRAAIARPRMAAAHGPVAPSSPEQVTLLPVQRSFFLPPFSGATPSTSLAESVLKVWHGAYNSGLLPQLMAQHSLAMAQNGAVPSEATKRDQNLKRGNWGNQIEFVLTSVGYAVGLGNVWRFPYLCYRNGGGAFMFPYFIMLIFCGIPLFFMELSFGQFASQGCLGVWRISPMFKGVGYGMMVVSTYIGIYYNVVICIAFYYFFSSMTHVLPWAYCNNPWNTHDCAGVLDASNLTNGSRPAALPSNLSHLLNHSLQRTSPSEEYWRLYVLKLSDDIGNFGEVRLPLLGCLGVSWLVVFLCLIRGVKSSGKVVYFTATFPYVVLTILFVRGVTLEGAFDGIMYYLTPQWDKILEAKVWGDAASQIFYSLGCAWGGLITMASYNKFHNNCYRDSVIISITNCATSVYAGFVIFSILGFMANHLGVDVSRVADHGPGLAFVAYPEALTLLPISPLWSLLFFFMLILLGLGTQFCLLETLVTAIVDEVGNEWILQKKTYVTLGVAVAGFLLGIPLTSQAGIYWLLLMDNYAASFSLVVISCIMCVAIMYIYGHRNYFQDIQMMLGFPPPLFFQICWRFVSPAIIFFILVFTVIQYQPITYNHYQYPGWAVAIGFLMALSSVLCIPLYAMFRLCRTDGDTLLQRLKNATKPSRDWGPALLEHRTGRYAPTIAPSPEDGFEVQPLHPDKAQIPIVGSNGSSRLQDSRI
row,Compound,Ki [µM]
1,"Cn1cnc(S(=O)(=O)N2CCc3ccc(C(CN)Cc4ccccc4)cc3C2)c1 (centres unmarked) [Example 1, 2-(2-(1-Methyl-1H-imidazol-4-ylsulfonyl)-1,2,3,4-tetrahydroisoquinolin-7-yl)-3-phenylpropan-1-amine]",≤ 10
2,"Cn1cc(S(=O)(=O)N2CCc3ccc(C(CN)Cc4ccccc4)cc3C2)cn1 (centres unmarked) [Example 2, 2-(2-(1-Methyl-1H-pyrazol-4-ylsulfonyl)-1,2,3,4-tetrahydroisoquinolin-7-yl)-3-phenylpropan-1-amine]",≤ 10
